Test results as given in US20260015328A1, “ATM KINASE INHIBITORS” (Eberhard Karls Universität Tübingen, priority 2023, published 2026).

Target: ATM (h) (Homo sapiens (Human), UniProt Q13315)
Experiment: ATM assay at Eurofins KinaseProfiler with adjusted concentration range (IC50^II)
Type: biochemical
Conditions: Table 13; assay variant (I or II) not given; read-out: IC50

Sequence of ATM (h) (Q13315 whole entry): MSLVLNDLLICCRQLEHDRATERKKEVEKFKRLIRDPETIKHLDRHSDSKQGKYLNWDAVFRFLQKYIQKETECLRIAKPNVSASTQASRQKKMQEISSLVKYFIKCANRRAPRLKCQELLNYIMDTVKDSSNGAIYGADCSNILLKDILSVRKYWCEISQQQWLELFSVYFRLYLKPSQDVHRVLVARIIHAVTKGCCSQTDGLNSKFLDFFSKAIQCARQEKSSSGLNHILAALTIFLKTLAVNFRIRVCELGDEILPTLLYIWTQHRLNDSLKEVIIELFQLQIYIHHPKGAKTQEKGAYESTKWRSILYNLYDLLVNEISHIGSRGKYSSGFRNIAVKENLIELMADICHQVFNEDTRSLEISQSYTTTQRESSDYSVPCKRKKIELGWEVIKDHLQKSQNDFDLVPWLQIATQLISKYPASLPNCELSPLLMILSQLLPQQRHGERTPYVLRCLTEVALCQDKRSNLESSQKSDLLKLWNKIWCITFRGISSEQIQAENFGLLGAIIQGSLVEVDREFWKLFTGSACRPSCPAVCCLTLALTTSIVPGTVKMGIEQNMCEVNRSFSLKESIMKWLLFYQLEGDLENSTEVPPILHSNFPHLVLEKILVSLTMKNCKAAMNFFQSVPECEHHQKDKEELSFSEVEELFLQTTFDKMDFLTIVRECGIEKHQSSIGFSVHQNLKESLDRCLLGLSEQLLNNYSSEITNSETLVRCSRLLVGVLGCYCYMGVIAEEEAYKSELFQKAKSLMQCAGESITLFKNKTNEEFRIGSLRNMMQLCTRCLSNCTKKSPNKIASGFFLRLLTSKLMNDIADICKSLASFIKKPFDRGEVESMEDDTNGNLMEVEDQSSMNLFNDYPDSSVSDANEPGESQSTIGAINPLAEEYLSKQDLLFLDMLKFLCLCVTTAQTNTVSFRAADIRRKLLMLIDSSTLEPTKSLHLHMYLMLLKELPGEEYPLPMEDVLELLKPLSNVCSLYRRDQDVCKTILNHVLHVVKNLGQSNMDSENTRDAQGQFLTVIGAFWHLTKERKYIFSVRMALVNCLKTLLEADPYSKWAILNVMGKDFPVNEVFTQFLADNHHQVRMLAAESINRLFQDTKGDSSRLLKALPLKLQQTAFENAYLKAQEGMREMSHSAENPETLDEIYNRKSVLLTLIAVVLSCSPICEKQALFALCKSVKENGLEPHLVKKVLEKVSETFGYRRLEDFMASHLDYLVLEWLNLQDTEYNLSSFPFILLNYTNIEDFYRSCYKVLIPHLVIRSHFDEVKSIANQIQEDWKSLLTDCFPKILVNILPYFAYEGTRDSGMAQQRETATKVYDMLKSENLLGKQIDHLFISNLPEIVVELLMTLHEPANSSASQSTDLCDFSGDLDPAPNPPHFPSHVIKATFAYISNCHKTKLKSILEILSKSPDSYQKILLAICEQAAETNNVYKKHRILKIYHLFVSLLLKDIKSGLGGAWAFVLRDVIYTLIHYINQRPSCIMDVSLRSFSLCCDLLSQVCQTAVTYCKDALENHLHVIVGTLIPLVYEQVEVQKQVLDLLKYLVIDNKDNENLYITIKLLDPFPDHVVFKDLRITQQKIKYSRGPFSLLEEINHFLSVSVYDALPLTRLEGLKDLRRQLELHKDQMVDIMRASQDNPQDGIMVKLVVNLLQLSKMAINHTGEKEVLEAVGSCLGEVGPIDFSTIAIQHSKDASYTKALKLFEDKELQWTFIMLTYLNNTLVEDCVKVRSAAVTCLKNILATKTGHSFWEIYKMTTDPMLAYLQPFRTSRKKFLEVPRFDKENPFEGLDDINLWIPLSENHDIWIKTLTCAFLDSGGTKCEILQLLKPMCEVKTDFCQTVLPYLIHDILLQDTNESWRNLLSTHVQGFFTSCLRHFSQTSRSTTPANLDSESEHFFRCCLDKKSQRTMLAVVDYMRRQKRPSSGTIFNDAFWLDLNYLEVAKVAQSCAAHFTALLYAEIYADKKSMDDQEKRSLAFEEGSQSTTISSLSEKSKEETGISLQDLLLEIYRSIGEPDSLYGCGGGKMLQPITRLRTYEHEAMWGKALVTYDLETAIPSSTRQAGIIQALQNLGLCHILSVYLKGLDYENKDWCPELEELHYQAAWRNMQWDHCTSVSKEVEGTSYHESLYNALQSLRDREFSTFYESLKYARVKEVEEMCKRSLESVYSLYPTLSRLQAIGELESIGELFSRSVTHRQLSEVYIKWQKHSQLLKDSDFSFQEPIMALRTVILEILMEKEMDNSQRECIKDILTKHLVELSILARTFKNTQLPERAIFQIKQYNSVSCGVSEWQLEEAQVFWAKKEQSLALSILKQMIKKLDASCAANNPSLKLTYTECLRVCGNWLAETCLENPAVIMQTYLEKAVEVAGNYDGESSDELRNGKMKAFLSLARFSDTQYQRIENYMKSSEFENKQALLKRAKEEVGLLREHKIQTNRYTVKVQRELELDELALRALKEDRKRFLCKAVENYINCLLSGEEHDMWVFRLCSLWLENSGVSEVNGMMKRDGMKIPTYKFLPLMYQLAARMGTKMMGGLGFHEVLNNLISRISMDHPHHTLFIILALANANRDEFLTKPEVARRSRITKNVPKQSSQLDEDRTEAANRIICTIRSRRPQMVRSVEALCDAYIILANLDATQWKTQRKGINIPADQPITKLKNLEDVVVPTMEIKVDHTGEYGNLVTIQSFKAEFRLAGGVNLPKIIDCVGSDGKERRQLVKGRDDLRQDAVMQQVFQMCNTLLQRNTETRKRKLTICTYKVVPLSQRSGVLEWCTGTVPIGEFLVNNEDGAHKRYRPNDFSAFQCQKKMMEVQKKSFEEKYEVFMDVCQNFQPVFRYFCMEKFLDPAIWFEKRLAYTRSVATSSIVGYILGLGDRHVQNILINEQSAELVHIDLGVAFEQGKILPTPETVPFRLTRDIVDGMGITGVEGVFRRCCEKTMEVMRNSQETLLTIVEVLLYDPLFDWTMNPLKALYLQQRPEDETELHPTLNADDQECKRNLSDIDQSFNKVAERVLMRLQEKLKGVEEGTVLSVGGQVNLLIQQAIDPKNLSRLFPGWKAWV

Row | IC50 [nM] | Compound
1 | 386 | COc1cc2ncn(-c3ccc4c(c3)N(S(C)(=O)=O)CC4)c2cc1-c1ccc(OCCCN(C)C)nc1 [TD-630, 3-((5-(5-methoxy-1-(1-(methylsulfonyl)indolin-6-yl)-1H-benzo[d]imidazol-6-yl)pyridin-2-yl)oxy)-N,N-dimethylpropan-1-amine]

Same assay, conditions: Table 13; read-out: IC50 [nM], IC50^II

Row | IC50 [nM] | Compound
2 | 106 | CS(=O)(=O)N1CCc2ccc(-n3cnc4ccc(-c5ccc(CO)cc5)cc43)cc21 [TD-587, (4-(1-(1-(methylsulfonyl)indolin-6-yl)-1H-benzo[d]imidazol-6-yl)phenyl)methanol]
3 | 2 | CN(C)CCc1nc2cc(-c3ccc4ncn(-c5ccc6c(c5)N(S(C)(=O)=O)CC6)c4c3)ccc2[nH]1 [TD-607, N,N-dimethyl-2-(3′-(1-(methylsulfonyl)indolin-6-yl)-1H,3′H-[5,5′-bibenzo[d]imidazol]-2-yl)ethan-1-amine]
4 | 237 | CN(C)CCCn1cc(-c2ccc3ncn(-c4ccc5c(c4)N(S(C)(=O)=O)CC5)c3n2)cn1 [TD-623, N,N-dimethyl-3-(4-(3-(1-(methylsulfonyl)indolin-6-yl)-3H-imidazo[4,5-b]pyridin-5-yl)-1H-pyrazol-1-yl)propan-1-amine]
5 | 113 | COc1cc2ncn(-c3ccc4c(c3)N(S(C)(=O)=O)CC4)c2cc1-c1ccc(NC(=O)NCCN(C)C)cc1 [TD-634, 1-(2-(dimethylamino)ethyl)-3-(4-(5-methoxy-1-(1-(methylsulfonyl)indolin-6-yl)-1H-benzo[d]imidazol-6-yl)phenyl)urea]

Target: isolated ATM kinase (Homo sapiens (Human), UniProt Q13315)
Sequence (Q13315 whole entry): as above
Experiment: FRET-based ATM activity assay at Reaction Biology Corp. (IC50^I)
Type: biochemical
Conditions: Table 13; read-out: IC50 [nM], IC50^I

Row | IC50 [nM] | Compound
6 | 60 | COc1cc(-n2cnc3ccc(-c4ccc(NC(=O)NCCN(C)C)cc4)cc32)cc(OC)c1OC [TD-309, 1-(2-(dimethylamino)ethyl)-3-(4-(1-(3,4,5-trimethoxyphenyl)-1H-benzo[d]imidazol-6-yl)phenyl)urea]
7 | 16 | CN(C)CCNC(=O)Nc1ccc(-c2ccc3ncn(-c4ccc5c(c4)CCCC5)c3c2)cc1 [TD-547, 1-(2-(dimethylamino)ethyl)-3-(4-(1-(5,6,7,8-tetrahydronaphthalen-2-yl)-1H-benzo[d]imidazol-6-yl)phenyl)urea]
8 | 7 | COCC(=O)Nc1cccc(-n2cnc3ccc(-c4ccc(NC(=O)NCCN(C)C)cc4)cc32)c1 [TD-344, N-(3-(6-(4-(3-(2-(dimethylamino)ethyl)ureido)phenyl)-1H-benzo[d]imidazol-1-yl)phenyl)-2-methoxyacetamide]
9 | 23 | CN(C)CCSc1ccc(-c2ccc3ncn(-c4cccc(NS(C)(=O)=O)c4)c3c2)cc1 [TD-472, N-(3-(6-(4-((2-(dimethylamino)ethyl)thio)phenyl)-1H-benzo[d]imidazol-1-yl)phenyl)methanesulfonamide]
10 | 343 | CN1CCN2C(=O)N(c3ccc(-c4ccc5ncn(-c6cccc(NS(C)(=O)=O)c6)c5c4)cc3)CC2C1 (centres unmarked) [TD-448, N-(3-(6-(4-(7-methyl-3-oxohexahydroimidazo[1,5-a]pyrazin-2(3H)-yl)phenyl)-1H-benzo[d]imidazol-1-yl)phenyl)methanesulfonamide]
11 | 10 | COCC(=O)Nc1ccc(-n2cnc3ccc(-c4ccc(NC(=O)NCCN(C)C)cc4)cc32)cc1 [TD-339, N-(4-(6-(4-(3-(2-(dimethylamino)ethyl)ureido)phenyl)-1H-benzo[d]imidazol-1-yl)phenyl)-2-methoxyacetamide]
